Results on six molecules are retold here after article PMC4703992, “Crystal structures of Mycobacterium tuberculosis HspAT and ArAT reveal structural basis of their distinct substrate specificities” (Scientific Reports, 2016).

Data set [1] has as its target T1, mHspAT (Mycobacterium tuberculosis, UniProt P9WML7).
T1 construct: gene hisC; recombinant, vector pYUB1062, over-expressed in M. smegmatis mc2 4517; homodimer
It counts as biochemical. To be noted: pH 8.4, 37 °C.

The target in data set [2] is T1, mHspAT. In kind it is binding.
Data set [3] has as its target T2, mArAT (Mycobacterium tuberculosis, UniProt P9WML5).
T2 construct: gene pat

Data set [4] deals with T2, mArAT. The source holds these as a separate data set.
In data set [5] the test system is N[C@@H](Cc1ccccc1)C(=O)O. Nature of the data set: purified protein. To be noted: pH 8.4; 37.0 °C.
The subject of data set [6] is N[C@H](COP(=O)(O)O)Cc1c[nH]cn1. Nature of the data set: purified protein. The conditions noted are these: pH 8.4; 37.0 °C.

T2 sequence (P9WML5 whole entry): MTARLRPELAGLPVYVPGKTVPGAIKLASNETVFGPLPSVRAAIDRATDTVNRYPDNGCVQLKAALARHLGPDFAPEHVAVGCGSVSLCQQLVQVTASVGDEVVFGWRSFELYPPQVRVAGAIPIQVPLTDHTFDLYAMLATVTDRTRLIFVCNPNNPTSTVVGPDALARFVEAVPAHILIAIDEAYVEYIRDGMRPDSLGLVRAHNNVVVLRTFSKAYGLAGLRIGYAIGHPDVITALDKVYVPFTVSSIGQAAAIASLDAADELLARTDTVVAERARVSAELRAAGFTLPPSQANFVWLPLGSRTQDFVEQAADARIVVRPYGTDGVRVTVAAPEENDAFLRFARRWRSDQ
T1 sequence (P9WML7 whole entry): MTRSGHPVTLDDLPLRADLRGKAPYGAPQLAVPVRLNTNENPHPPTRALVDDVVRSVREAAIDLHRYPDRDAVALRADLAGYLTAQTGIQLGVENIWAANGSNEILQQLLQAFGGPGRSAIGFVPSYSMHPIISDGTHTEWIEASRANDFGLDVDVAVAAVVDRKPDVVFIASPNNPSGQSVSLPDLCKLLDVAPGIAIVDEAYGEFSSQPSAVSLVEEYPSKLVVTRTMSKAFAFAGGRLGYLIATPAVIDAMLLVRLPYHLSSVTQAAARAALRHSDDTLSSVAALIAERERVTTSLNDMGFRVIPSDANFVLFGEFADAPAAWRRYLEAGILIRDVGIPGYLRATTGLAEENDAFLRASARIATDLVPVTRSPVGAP

`O=S(=O)(O)CCN1CCOCC1` [MES]: the “Vo'/Vo” value in data set [1] is given as “concentration dependent inhibition of mHspAT-Hsp activity with MES”.
On to `Cc1ncc(COP(=O)(O)O)c(C=O)c1O` [PLP], for which the “crystal structure, 2.05 Å” value in data set [2] is “binding of the PLP as an internal aldimine via a Schiff’s base with Lys232 Nζ”. In data set [3], the “crystal structure, 1.98 Å” value is reported as “it exists as a PLP-Phe external aldimine intermediate complex in one of the monomers”.
As to `Cc1ncc(COP(=O)(O)O)c(CN)c1O` [PMP], the “crystal structure, 1.95 Å” value in data set [4] is “In the active site of mArAT, indigenously bound PMP and succinate were modelled”.
As for `N[C@@H](Cc1ccccc1)C(=O)O` [Phe], in data set [3], the “crystal structure, 1.98 Å” value was “Phe is present in the active site of both the monomers of a homodimer”.
In the case of `O=C(O)CCC(=O)O` [succinate], the “crystal structure, 1.95 Å” value in data set [4] is “In the dicarboxylate bound form, succinate exists as a non-covalently linked moiety”.
Regarding “mHspAT (Mycobacterium tuberculosis H37Rv)”, in data set [5], the Michaelis constant (Km) worked out at 7.1 ± 0.81 mM and the kcat/Km was 30000 ± 3000 M⁻¹ s⁻¹. In addition, in data set [6], the Km came to 0.42 ± 0.02 mM and the kcat/Km worked out at 1.02e+06 ± 87000 M⁻¹ s⁻¹.
